Legend:
[1] = molecular target: Mitogen-activated protein kinase 14 (Homo sapiens, UniProt Q16539); assay: Selectivity interaction (KinomeScan (DiscoverX)) EUB0000713a MAPK14; conditions: at 100 nM
[2] = molecular target: Serine/threonine-protein kinase PAK 3 (Homo sapiens, UniProt O75914); assay: Selectivity interaction (KinomeScan (DiscoverX)) EUB0000713a PAK3; conditions: at 100 nM
[3] = molecular target: Serine/threonine-protein kinase 10 (Homo sapiens) (UniProt O94804); assay: Selectivity interaction (KinomeScan (DiscoverX)) EUB0000713a STK10; conditions: at 100 nM
[4] = molecular target: T1, Gamma-aminobutyric acid receptor subunit alpha-1 (Homo sapiens, UniProt P14867); assay: Selectivity interaction (GPCR panel (PDSP screen)) EUB0000713a GABRA1
T1 sequence (P14867 whole entry): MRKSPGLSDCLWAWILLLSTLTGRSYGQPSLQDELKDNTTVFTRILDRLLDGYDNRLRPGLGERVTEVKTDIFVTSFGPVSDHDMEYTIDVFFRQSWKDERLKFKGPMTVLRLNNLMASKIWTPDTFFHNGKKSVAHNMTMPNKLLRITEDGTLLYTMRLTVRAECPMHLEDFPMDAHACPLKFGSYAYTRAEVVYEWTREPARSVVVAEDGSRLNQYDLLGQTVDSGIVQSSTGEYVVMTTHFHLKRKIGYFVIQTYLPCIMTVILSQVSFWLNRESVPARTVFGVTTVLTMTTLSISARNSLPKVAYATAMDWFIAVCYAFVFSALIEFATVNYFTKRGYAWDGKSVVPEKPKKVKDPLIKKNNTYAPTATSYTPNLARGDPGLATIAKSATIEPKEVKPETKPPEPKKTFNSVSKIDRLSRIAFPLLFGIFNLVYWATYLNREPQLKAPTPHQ

[5] = molecular target: T2, Ephrin type-B receptor 6 (Homo sapiens) (UniProt O15197); assay: Selectivity interaction (KinomeScan (DiscoverX)) EUB0000713a EPHB6; conditions: at 100 nM
T2 sequence (whole entry): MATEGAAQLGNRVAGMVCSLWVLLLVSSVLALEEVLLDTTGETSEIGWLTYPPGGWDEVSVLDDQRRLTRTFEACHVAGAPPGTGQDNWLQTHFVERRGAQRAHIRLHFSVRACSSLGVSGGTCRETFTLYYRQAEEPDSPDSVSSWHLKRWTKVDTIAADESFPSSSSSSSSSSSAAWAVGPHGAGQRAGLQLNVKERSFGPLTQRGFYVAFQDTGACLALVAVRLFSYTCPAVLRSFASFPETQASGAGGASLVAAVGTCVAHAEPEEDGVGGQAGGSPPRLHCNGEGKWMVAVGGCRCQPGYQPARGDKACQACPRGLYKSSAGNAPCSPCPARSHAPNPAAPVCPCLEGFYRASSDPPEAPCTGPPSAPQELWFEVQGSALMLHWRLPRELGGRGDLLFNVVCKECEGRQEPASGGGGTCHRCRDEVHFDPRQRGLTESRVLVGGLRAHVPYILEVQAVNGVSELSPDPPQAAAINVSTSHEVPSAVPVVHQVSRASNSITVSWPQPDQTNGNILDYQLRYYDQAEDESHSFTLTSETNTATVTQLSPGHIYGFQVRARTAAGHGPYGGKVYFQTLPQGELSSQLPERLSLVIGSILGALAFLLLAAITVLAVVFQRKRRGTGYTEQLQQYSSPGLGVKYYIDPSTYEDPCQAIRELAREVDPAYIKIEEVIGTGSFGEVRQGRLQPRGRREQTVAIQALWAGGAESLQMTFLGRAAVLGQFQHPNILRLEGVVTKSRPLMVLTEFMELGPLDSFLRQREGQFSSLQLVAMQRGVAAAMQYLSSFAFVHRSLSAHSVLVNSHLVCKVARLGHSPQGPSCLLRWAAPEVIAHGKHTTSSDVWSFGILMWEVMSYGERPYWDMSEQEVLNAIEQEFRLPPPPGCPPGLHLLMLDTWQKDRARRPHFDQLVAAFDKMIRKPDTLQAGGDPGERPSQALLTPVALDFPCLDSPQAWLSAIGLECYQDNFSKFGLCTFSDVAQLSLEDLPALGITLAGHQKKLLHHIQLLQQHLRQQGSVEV

[6] = molecular target: Tyrosine-protein kinase Lyn (Homo sapiens, UniProt P07948); assay: Selectivity interaction (NanoBRET assay (HEK293T cells)) EUB0000713a LYN
Acetylcholinesterase = Acetylcholinesterase (Homo sapiens, UniProt P22303); assay: Selectivity interaction (Internal GSK panel (receptors, ion channels and other enzymes )) EUB0000256b ACHE
[7] = molecular target: Bromodomain adjacent to zinc finger domain protein 2B (Homo sapiens, UniProt Q9UIF8); assay: Selectivity interaction (BROMOscan™ panel (DiscoverX)) EUB0000256b BAZ2B
[8] = molecular target: Bromodomain-containing protein 1 (Homo sapiens, UniProt O95696); assay: Selectivity interaction (BROMOscan™ panel (DiscoverX)) EUB0000256b BRD1
[9] = molecular target: Bromodomain-containing protein 7 (Homo sapiens, UniProt Q9NPI1); assay: Selectivity interaction (BROMOscan™ panel (DiscoverX)) EUB0000256b BRD7
[10] = molecular target: Bromodomain-containing protein 9 (Homo sapiens, UniProt Q9H8M2); assay: Selectivity interaction (BROMOscan™ panel (DiscoverX)) EUB0000256b BRD9
Peregrin = Peregrin (Homo sapiens, UniProt P55201); assay: Selectivity interaction (BROMOscan™ panel (DiscoverX)) EUB0000256b BRPF1
[11] = molecular target: Histone acetyltransferase KAT2B (Homo sapiens, UniProt Q92831); assay: Selectivity interaction (TR-FRET assay) EUB0000256b KAT2B
[12] = molecular target: T3, Casein kinase I isoform delta (Homo sapiens, UniProt P48730); assay: Selectivity interaction (KinomeScan (DiscoverX)) EUB0000718a CSNK1D; conditions: at 1 µM
[13] = molecular target: T3, Casein kinase I isoform delta; assay: Selectivity interaction (NanoBRET assay (HEK293T cells)) EUB0000718a CSNK1D
[14] = molecular target: T4, Casein kinase I isoform epsilon (Homo sapiens, UniProt P49674); assay: Selectivity interaction (KinomeScan (DiscoverX)) EUB0000718a CSNK1E; conditions: at 1 µM
Target sequence in this assay (P49674 whole entry, looked up, canonical isoform): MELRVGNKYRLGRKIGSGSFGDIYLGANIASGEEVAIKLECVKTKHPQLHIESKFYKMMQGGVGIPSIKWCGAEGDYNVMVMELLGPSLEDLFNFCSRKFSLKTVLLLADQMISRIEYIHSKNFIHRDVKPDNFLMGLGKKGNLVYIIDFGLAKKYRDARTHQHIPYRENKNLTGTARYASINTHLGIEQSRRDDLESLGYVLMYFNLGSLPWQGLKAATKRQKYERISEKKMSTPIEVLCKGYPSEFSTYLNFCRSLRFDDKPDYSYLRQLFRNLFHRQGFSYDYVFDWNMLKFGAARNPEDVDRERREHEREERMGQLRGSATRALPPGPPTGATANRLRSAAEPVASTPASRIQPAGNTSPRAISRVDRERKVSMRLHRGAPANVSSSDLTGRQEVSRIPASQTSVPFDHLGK

[15] = molecular target: T4, Casein kinase I isoform epsilon; assay: Selectivity interaction (NanoBRET assay (HEK293T cells)) EUB0000718a CSNK1E
Target sequence in this assay (P49674 whole entry, canonical isoform): as the sequence (P49674 whole entry, looked up, canonical isoform) above

[16] = molecular target: T5, Casein kinase I isoform gamma-3 (Homo sapiens, UniProt Q9Y6M4); assay: Selectivity interaction (KinomeScan (DiscoverX)) EUB0000718a CSNK1G3; conditions: at 1 µM
Target sequence in this assay (Q9Y6M4 whole entry, looked up, canonical isoform): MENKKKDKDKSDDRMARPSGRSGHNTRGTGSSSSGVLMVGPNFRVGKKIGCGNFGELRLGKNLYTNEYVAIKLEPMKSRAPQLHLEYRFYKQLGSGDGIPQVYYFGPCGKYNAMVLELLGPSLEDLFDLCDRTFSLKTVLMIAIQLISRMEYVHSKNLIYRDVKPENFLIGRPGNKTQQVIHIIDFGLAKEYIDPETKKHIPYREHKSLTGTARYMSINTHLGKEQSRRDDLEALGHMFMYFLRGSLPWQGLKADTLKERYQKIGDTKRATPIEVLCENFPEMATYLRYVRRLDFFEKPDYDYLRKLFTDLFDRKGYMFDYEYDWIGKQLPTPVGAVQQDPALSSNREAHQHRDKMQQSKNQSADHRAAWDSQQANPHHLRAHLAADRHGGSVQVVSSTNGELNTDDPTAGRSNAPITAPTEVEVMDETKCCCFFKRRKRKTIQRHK

[17] = molecular target: T5, Casein kinase I isoform gamma-3; assay: Selectivity interaction (NanoBRET assay (HEK293T cells)) EUB0000718a CSNK1G3
Target sequence in this assay (Q9Y6M4 whole entry, canonical isoform): as the sequence (Q9Y6M4 whole entry, looked up, canonical isoform) above

[18] = molecular target: T6, Mitogen-activated protein kinase 12 (Homo sapiens) (UniProt P53778); assay: Selectivity interaction (KinomeScan (DiscoverX)) EUB0000718a MAPK12; conditions: at 1 µM
T6 sequence (whole entry): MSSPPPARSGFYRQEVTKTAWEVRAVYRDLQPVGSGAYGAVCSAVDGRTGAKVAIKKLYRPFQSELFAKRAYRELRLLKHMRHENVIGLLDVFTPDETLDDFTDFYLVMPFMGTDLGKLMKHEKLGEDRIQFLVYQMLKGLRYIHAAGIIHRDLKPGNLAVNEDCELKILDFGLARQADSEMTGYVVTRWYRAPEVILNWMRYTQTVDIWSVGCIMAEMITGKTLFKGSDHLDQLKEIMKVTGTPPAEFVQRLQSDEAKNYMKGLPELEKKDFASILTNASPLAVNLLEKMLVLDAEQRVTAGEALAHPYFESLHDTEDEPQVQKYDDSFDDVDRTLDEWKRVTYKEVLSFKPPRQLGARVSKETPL

Aurora kinase B = Aurora kinase B (Homo sapiens, UniProt Q96GD4); assay: Selectivity interaction (KinomeScan (DiscoverX)) EUB0000718a AURKB; conditions: at 1 µM
[19] = molecular target: Phosphorylase b kinase gamma catalytic chain, skeletal muscle/heart isoform (Homo sapiens) (UniProt Q16816); assay: Selectivity interaction (KinomeScan ([…])) EUB0000642a PHKG1; conditions: at 3 µM
[20] = molecular target: Dual specificity tyrosine-phosphorylation-regulated kinase 1B (Homo sapiens, UniProt Q9Y463); assay: Selectivity interaction (KinomeScan ([…])) EUB0000642a DYRK1B; conditions: at 3 µM
[21] = molecular target: Dual specificity tyrosine-phosphorylation-regulated kinase 1A (Homo sapiens, UniProt Q13627); assay: Selectivity interaction (KinomeScan (Invitrogen)) EUB0000642a DYRK1A; conditions: at 3 µM
[22] = molecular target: Dual specificity tyrosine-phosphorylation-regulated kinase 3 (Homo sapiens) (UniProt O43781); assay: Selectivity interaction (KinomeScan ([…])) EUB0000642a DYRK3; conditions: at 3 µM
[23] = molecular target: Mitogen-activated protein kinase 8 (Homo sapiens, UniProt P45983); assay: Selectivity interaction (ActivX KiNative profiling assay (in HCT-116 cell line (CRL-1619))) EUB0000642a MAPK8
[24] = molecular target: Mitogen-activated protein kinase 9 (Homo sapiens, UniProt P45984); assay: Selectivity interaction (ActivX KiNative profiling assay (in HCT-116 cell line (CRL-1619))) EUB0000642a MAPK9
[25] = molecular target: Mitogen-activated protein kinase 10 (Homo sapiens, UniProt P53779); assay: Selectivity interaction (ActivX KiNative profiling assay (in HCT-116 cell line (CRL-1619))) EUB0000642a MAPK10
[26] = molecular target: Phosphatidylinositol 5-phosphate 4-kinase type-2 gamma (Homo sapiens, UniProt Q8TBX8); assay: Selectivity interaction (ActivX KiNative profiling assay (in HCT-116 cell line (CRL-1619))) EUB0000642a PIP4K2C
[27] = molecular target: Dual specificity protein kinase CLK1 (Homo sapiens, UniProt P49759); conditions: at 3 µM

Chain of Bromodomain adjacent to zinc finger domain protein 2B (Q9UIF8 whole entry, the tested form may be a part): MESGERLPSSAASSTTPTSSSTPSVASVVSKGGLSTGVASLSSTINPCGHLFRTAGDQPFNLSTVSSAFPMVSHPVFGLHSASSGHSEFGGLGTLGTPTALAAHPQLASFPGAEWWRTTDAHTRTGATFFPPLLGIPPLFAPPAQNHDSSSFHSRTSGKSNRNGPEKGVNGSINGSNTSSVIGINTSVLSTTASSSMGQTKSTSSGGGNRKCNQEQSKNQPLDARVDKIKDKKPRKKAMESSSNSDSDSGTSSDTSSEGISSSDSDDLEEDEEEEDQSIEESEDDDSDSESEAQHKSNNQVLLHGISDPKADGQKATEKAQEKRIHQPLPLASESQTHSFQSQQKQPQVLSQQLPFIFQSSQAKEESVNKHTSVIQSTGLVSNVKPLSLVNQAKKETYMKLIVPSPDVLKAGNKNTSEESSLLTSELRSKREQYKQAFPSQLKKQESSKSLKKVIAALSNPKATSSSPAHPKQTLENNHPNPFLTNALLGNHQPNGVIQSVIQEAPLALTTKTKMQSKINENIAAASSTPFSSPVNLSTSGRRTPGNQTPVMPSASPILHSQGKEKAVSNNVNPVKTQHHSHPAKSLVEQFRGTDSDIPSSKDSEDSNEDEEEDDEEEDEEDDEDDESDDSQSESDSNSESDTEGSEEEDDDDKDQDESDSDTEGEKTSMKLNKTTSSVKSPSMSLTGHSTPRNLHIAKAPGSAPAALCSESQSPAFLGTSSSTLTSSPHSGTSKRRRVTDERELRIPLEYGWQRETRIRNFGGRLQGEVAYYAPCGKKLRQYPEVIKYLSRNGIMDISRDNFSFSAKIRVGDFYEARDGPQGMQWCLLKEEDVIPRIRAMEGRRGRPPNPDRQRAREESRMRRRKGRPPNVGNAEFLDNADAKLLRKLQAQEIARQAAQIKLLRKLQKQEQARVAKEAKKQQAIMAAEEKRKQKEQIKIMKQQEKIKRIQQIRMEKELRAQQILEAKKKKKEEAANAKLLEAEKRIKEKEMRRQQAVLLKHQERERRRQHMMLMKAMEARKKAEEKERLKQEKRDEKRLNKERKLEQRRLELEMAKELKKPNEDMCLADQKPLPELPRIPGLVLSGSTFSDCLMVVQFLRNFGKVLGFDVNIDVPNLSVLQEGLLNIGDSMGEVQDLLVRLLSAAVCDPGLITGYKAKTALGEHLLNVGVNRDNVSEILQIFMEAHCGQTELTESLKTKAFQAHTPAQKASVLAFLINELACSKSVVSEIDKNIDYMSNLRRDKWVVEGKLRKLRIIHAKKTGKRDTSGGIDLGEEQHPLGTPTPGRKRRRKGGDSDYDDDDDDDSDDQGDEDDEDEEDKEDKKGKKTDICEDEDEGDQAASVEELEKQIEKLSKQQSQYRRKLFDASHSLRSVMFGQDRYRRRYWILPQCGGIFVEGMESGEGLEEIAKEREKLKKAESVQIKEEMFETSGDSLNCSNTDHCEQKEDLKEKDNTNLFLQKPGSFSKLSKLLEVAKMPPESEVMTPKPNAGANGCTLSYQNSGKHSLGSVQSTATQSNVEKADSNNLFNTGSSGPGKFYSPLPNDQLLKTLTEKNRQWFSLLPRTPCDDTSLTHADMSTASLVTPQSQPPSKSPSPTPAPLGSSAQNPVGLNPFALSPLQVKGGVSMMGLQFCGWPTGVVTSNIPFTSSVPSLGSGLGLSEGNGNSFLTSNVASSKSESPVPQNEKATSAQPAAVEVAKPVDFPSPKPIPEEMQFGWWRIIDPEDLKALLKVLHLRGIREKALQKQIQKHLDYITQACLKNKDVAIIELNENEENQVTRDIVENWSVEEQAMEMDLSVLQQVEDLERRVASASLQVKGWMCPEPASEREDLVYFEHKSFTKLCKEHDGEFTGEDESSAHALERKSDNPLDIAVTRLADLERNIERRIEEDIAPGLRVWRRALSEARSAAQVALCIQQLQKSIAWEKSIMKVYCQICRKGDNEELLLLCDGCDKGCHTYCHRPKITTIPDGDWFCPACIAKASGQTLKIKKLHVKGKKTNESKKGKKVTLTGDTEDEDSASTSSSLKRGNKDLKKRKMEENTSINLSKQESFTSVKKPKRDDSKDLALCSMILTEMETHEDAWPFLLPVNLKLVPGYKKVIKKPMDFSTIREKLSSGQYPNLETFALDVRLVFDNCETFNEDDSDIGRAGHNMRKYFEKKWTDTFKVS
Chain of Tyrosine-protein kinase Lyn (P07948 whole entry): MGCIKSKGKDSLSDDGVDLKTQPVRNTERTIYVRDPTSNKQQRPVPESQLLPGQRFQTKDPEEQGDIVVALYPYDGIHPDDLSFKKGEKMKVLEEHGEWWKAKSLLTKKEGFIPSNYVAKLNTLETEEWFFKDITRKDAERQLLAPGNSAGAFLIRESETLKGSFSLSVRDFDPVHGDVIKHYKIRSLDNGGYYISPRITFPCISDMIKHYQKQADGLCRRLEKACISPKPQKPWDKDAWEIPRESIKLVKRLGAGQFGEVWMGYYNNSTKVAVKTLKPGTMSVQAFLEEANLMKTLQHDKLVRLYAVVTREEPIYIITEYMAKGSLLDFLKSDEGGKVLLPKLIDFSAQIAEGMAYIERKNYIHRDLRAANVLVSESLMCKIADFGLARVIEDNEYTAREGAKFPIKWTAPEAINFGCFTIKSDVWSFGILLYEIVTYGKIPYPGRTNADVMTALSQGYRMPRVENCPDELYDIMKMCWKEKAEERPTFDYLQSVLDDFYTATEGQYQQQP
Chain of Acetylcholinesterase (P22303 whole entry, the tested form may be a part): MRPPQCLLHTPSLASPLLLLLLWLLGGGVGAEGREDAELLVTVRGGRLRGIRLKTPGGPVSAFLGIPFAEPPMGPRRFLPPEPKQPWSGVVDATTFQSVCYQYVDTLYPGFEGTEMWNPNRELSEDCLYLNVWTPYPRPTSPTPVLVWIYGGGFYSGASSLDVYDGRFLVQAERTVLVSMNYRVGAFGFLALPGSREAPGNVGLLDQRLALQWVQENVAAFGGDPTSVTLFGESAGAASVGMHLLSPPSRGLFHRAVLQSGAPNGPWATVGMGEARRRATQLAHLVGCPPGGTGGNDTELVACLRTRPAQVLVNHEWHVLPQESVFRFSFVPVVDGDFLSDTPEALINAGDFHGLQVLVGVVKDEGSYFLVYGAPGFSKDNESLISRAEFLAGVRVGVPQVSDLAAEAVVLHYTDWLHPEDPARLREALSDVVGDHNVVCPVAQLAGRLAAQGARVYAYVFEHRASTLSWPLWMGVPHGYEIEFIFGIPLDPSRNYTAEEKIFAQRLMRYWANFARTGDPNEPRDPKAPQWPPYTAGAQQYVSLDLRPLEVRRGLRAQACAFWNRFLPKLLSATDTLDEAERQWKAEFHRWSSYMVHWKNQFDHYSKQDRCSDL
Chain of Phosphatidylinositol 5-phosphate 4-kinase type-2 gamma (Q8TBX8 whole entry): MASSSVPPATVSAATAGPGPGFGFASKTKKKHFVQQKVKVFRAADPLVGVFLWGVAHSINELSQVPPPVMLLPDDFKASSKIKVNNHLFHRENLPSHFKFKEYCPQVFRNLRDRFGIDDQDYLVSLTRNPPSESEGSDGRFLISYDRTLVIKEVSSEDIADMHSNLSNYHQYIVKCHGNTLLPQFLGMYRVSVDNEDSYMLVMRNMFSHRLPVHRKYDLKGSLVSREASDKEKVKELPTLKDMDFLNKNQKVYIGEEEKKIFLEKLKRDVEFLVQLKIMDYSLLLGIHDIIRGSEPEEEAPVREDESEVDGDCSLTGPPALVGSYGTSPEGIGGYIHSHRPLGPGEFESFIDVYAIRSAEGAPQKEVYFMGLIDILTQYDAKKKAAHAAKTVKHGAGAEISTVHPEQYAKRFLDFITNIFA

## Cc1cc(C)c(-n2ccn3nc(-c4cccnc4)cc23)cc1NC(=O)c1cc(C#N)cc(S(F)(F)(F)(F)F)c1 [BAY-826]
[1]
  % of control: 0%
[2]
  % of control: 26.1%
[3]
  % of control: 1.8%
[4]
  Ki: 217 nM
[5]
  % of control: 3%
[6]
  EC50: 7400 nM

## CN1C[C@H](Nc2cnn(C)c(=O)c2Br)C[C@H](c2ccccc2)C1
Acetylcholinesterase
  XC50: 3200 nM
[7]
  Ki: 840 nM
[8]
  Ki: 110 nM
[9]
  Ki: 1500 nM
[10]
  Ki: 1400 nM
Peregrin
  Ki: 140 nM
[11]
  IC50: 40 nM

## O=C(NCCN1CCOCC1)c1ccc2c(c1)C(=O)c1ccc(Nc3ccc(F)c(NC(=O)c4ccccc4)c3)cc1CC2 [FS-694]
[12]
  % of control: 5.8%
[13]
  IC50: > 20000 nM
[14]
  % of control: 0.75%
[15]
  IC50: > 20000 nM
[16]
  % of control: 35%
[17]
  IC50: > 20000 nM
[18]
  % of control: 14%
Aurora kinase B
  % of control: 22%

## CNC(=O)c1ccc(Nc2nc(OC3CCCC3)c3c(-c4ccc5nc(C)oc5c4)c[nH]c3n2)c(OC)c1
[19]
  % of inhibition: 96%
[20]
  % of inhibition: 98%
[21]
  % of inhibition: 94%
[22]
  % of inhibition: 95%
[23]
  IC50: 680 nM
[24]
  IC50: 680 nM
[25]
  IC50: 680 nM
[26]
  IC50: 1300 nM
[27]
  % of inhibition: 99%
